According to PubChem BioAssay (NCI):
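Five concentrations, 48 hours, 96-well plates. The concentration for full growth arrest is given as TGI.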

Experiments:
Assay in all cases: NCI tumour cell line growth inhibition, 48 h
DMS 114 small cell lung = test system: DMS 114 small cell lung
SK-MEL-5 melanoma = test system: SK-MEL-5 melanoma
SK-MEL-28 melanoma = test system: SK-MEL-28 melanoma
TK-10 renal = test system: TK-10 renal
KM12 colon = test system: KM12 colon
SR leukemia = test system: SR leukemia
HOP-62 NSCLC = test system: HOP-62 NSCLC
SF-268 CNS = test system: SF-268 CNS
RXF 393 renal = test system: RXF 393 renal
M19-MEL melanoma = test system: M19-MEL melanoma
NCI-H226 lung = test system: NCI-H226 lung
UO-31 renal = test system: UO-31 renal
DMS 273 small cell lung = test system: DMS 273 small cell lung
SN12C renal = test system: SN12C renal
CAKI-1 renal = test system: CAKI-1 renal
UACC-257 melanoma = test system: UACC-257 melanoma
HCT-15 colon = test system: HCT-15 colon
MALME-3M melanoma = test system: MALME-3M melanoma
HL-60(TB) leukemia = test system: HL-60(TB) leukemia
UACC-62 melanoma = test system: UACC-62 melanoma
MOLT-4 leukemia = test system: MOLT-4 leukemia
HOP-92 NSCLC = test system: HOP-92 NSCLC
HT29 colon = test system: HT29 colon
SF-295 CNS = test system: SF-295 CNS
SK-OV-3 ovarian = test system: SK-OV-3 ovarian
M14 melanoma = test system: M14 melanoma
EKVX NSCLC = test system: EKVX NSCLC
HOP-18 NSCLC = test system: HOP-18 NSCLC
NCI-H23 lung = test system: NCI-H23 lung
COLO 205 colon = test system: COLO 205 colon
SNB-19 CNS = test system: SNB-19 CNS
HCT-116 colon = test system: HCT-116 colon
786-0 renal = test system: 786-0 renal
A549 NSCLC = test system: A549 NSCLC
DLD-1 colon = test system: DLD-1 colon
OVCAR-3 ovarian = test system: OVCAR-3 ovarian
LXFL 529 NSCLC = test system: LXFL 529 NSCLC
NCI-H460 lung = test system: NCI-H460 lung
OVCAR-8 ovarian = test system: OVCAR-8 ovarian
CCRF-CEM leukemia = test system: CCRF-CEM leukemia
A498 renal = test system: A498 renal
SNB-75 CNS = test system: SNB-75 CNS
XF 498 CNS = test system: XF 498 CNS
KM20L2 colon = test system: KM20L2 colon
K-562 leukemia = test system: K-562 leukemia
RXF-631 renal = test system: RXF-631 renal
RPMI-8226 leukemia = test system: RPMI-8226 leukemia
SNB-78 CNS = test system: SNB-78 CNS
NCI-H522 lung = test system: NCI-H522 lung
HCC-2998 colon = test system: HCC-2998 colon
ACHN renal = test system: ACHN renal
OVCAR-5 ovarian = test system: OVCAR-5 ovarian
LOX IMVI melanoma = test system: LOX IMVI melanoma
SW-620 colon = test system: SW-620 colon
SK-MEL-2 melanoma = test system: SK-MEL-2 melanoma
IGROV1 ovarian = test system: IGROV1 ovarian
SF-539 CNS = test system: SF-539 CNS
OVCAR-4 ovarian = test system: OVCAR-4 ovarian
U251 CNS = test system: U251 CNS

O=C(c1cc2ccccc2o1)N(Cc1ccccc1)c1ccccc1
TGI (DMS 114 small cell lung): 44.2 µM | TGI (SK-MEL-5 melanoma): 31.2 µM | TGI (SK-MEL-28 melanoma): 87 µM | TGI (TK-10 renal): > 100 µM | TGI (KM12 colon): 46.6 µM | TGI (SR leukemia): 68.4 µM | TGI (HOP-62 NSCLC): 71.4 µM | TGI (SF-268 CNS): > 100 µM | TGI (RXF 393 renal): 43 µM | TGI (M19-MEL melanoma): 51.4 µM | TGI (NCI-H226 lung): 34.9 µM | TGI (UO-31 renal): 51.8 µM | TGI (DMS 273 small cell lung): > 100 µM | TGI (SN12C renal): 34.7 µM | TGI (CAKI-1 renal): 55.5 µM | TGI (UACC-257 melanoma): 41.4 µM | TGI (HCT-15 colon): 41 µM | TGI (MALME-3M melanoma): 59.8 µM | TGI (HL-60(TB) leukemia): 40.6 µM | TGI (UACC-62 melanoma): 28.1 µM | TGI (MOLT-4 leukemia): 39.9 µM | TGI (HOP-92 NSCLC): 44 µM | TGI (HT29 colon): 66 µM | TGI (SF-295 CNS): > 100 µM | TGI (SK-OV-3 ovarian): 91.2 µM | TGI (M14 melanoma): 38.9 µM | TGI (EKVX NSCLC): 78.2 µM | TGI (HOP-18 NSCLC): 65.9 µM | TGI (NCI-H23 lung): 71.2 µM | TGI (COLO 205 colon): 35.4 µM | TGI (SNB-19 CNS): > 100 µM | TGI (HCT-116 colon): 31.9 µM | TGI (786-0 renal): 46.7 µM | TGI (A549 NSCLC): > 100 µM | TGI (DLD-1 colon): 56.6 µM | TGI (OVCAR-3 ovarian): 41.2 µM | TGI (LXFL 529 NSCLC): > 100 µM | TGI (NCI-H460 lung): 78.6 µM | TGI (OVCAR-8 ovarian): 66.2 µM | TGI (CCRF-CEM leukemia): 37.6 µM | TGI (A498 renal): 89.1 µM | TGI (SNB-75 CNS): > 100 µM | TGI (XF 498 CNS): 41.8 µM | TGI (KM20L2 colon): 35.9 µM | TGI (K-562 leukemia): 40 µM | TGI (RXF-631 renal): > 100 µM | TGI (RPMI-8226 leukemia): 49.8 µM | TGI (SNB-78 CNS): > 100 µM | TGI (NCI-H522 lung): 33.9 µM | TGI (HCC-2998 colon): 46.1 µM | TGI (ACHN renal): > 100 µM | TGI (OVCAR-5 ovarian): > 100 µM | TGI (LOX IMVI melanoma): 39 µM | TGI (SW-620 colon): 32.4 µM | TGI (SK-MEL-2 melanoma): > 100 µM | TGI (IGROV1 ovarian): > 100 µM

NC(=S)Nc1cc(Cl)ccc1Cl
TGI (DMS 114 small cell lung): > 100 µM | TGI (SK-MEL-5 melanoma): > 100 µM | TGI (SK-MEL-28 melanoma): > 100 µM | TGI (TK-10 renal): > 100 µM | TGI (KM12 colon): > 100 µM | TGI (SR leukemia): > 100 µM | TGI (HOP-62 NSCLC): > 100 µM | TGI (SF-268 CNS): > 100 µM | TGI (RXF 393 renal): > 100 µM | TGI (M19-MEL melanoma): > 100 µM | TGI (NCI-H226 lung): > 100 µM | TGI (UO-31 renal): > 100 µM | TGI (DMS 273 small cell lung): > 100 µM | TGI (SN12C renal): > 100 µM | TGI (CAKI-1 renal): > 100 µM | TGI (UACC-257 melanoma): > 100 µM | TGI (SF-539 CNS): > 100 µM | TGI (HCT-15 colon): > 100 µM | TGI (MALME-3M melanoma): > 100 µM | TGI (HL-60(TB) leukemia): > 100 µM | TGI (UACC-62 melanoma): > 100 µM | TGI (MOLT-4 leukemia): > 100 µM | TGI (HOP-92 NSCLC): > 100 µM | TGI (HT29 colon): > 100 µM | TGI (SF-295 CNS): > 100 µM | TGI (SK-OV-3 ovarian): > 100 µM | TGI (M14 melanoma): > 100 µM | TGI (EKVX NSCLC): > 100 µM | TGI (HOP-18 NSCLC): > 100 µM | TGI (NCI-H23 lung): > 100 µM | TGI (COLO 205 colon): > 100 µM | TGI (SNB-19 CNS): > 100 µM | TGI (HCT-116 colon): > 100 µM | TGI (A549 NSCLC): > 100 µM | TGI (DLD-1 colon): > 100 µM | TGI (OVCAR-3 ovarian): > 100 µM | TGI (LXFL 529 NSCLC): > 100 µM | TGI (NCI-H460 lung): > 100 µM | TGI (OVCAR-8 ovarian): > 100 µM | TGI (CCRF-CEM leukemia): > 100 µM | TGI (A498 renal): > 100 µM | TGI (OVCAR-4 ovarian): > 100 µM | TGI (SNB-75 CNS): > 100 µM | TGI (XF 498 CNS): > 100 µM | TGI (KM20L2 colon): > 100 µM | TGI (K-562 leukemia): > 100 µM | TGI (RXF-631 renal): > 100 µM | TGI (RPMI-8226 leukemia): > 100 µM | TGI (SNB-78 CNS): > 100 µM | TGI (NCI-H522 lung): > 100 µM | TGI (HCC-2998 colon): > 100 µM | TGI (ACHN renal): > 100 µM | TGI (OVCAR-5 ovarian): > 100 µM | TGI (LOX IMVI melanoma): > 100 µM | TGI (SW-620 colon): > 100 µM | TGI (SK-MEL-2 melanoma): > 100 µM | TGI (U251 CNS): > 100 µM | TGI (IGROV1 ovarian): > 100 µM
